Measurements published in paper PMC9951978, “Comparative Study of Different H2S Donors as Vasodilators and Attenuators of Superoxide-Induced Endothelial Damage” (Antioxidants, 2023).

Legend:
[1] = Stability at pH 7.4 in phosphate buffer (PBS); assay type: physicochemical; conditions: PBS pH 7.4, 37 °C
Description: (§1) The compounds were solubilized at a concentration of 100 µM (starting from a 10 mM stock solution in DMSO) in 0.1 M PBS, pH = 7.4, in the absence or presence of 5 mM L-cysteine (50×). The solutions were incubated at 37.0 ± 0.5 °C, and at appropriate time intervals, aliquots were analyzed by RP-HPLC as described below. All experiments were performed at least in triplicate.
(§2) RP-HPLC analysis was performed with an HP 1100 chromatograph system (Agilent Technologies, Palo Alto, CA, USA) equipped with an injector (Rheodyne, Cotati, CA, USA), a quaternary pump (model G1311A), a membrane degasser (model G1379A), and a diode-array detector (DAD, model G1315B) integrated into the HP1100 system. The data were processed using an HP ChemStation system (Agilent Technologies, Palo Alto, CA, USA). A stationary phase Tracer Excel 120 ODSB (25 × 0.46, 5 μm; Tecnokroma (Teknokroma Analytical S.A., Barcelona, Spain)) was used. The mobile phase consisted of acetonitrile 0.1% HCOOH/water 0.1% HCOOH at a flow rate of 1.0 mL/min, with gradient elution: 35% acetonitrile up to 5 min, 35 to 80% acetonitrile between 5 and 10 min, 80% acetonitrile between 10 and 20 min. The injection volume was 20 μL. The column effluent was monitored for each compound at the wavelength of maximum absorption (referenced against a 700 nm wavelength). Using this RP-HPLC procedure, we separated the compounds from any degradation products and we quantified the compounds during incubation time. The quantification was performed using a calibration curve obtained with standard solutions of compounds chromatographed under the same experimental conditions, in a concentration range of 1–100 μM (r^2 > 0.99).

[2] = Stability of the compounds in human serum (RP-HPLC); assay type: in vitro ADME; conditions: 37 °C; for % Compd ± SE: 200 µM; for half-life at 200 µM: male, read-out: Half-life (t1/2)
Description: A solution of each compound (10 mM) in DMSO was added to human serum (obtained by filtration and sterilization from AB, Sigma-Aldrich (Merck KGaA, 64,271 Darmstadt, Germany) male human blood) and was preheated to 37 °C to obtain a final concentration of 200 µM. The resulting solution was incubated at 37.0 ± 0.5 °C, and aliquots of 300 µL were taken at appropriate time intervals and added to 300 µL of CH3CN acidified with 0.1% formic acid in order to deproteinize the serum. The mixture was centrifuged for 10 min at 2150× g, and the clear supernatant was filtered (PTFE filters, 0.45 µm, VWR (VWR International S.r.l., Milano, Italy)) and analyzed by RP-HPLC as described below. All experiments were performed at least in triplicate.
as §2

[3] = Stability at pH 7.4 in PBS in the presence of L-cysteine (50x); assay type: physicochemical; conditions: pH 7.4, 37 °C; for half-life at 100 µM: phosphate buffer (PBS) with L-cysteine, read-out: t1/2, buffer + cysteine (50×) (converted)
Description: as §1, §2

rat aorta strips = test: Vasodilating activity on endothelium-denuded rat aorta strips precontracted with KCl; assay type: cell-based; conditions: for EC50: endothelium-denuded rat aorta strips precontracted with 25 mM KCl, read-out: Vasodilating activity EC50 ± SEM; for Effect of glibenclamide on the concentration-response curve / EC50: presence vs absence of K+ATP channel blocker glibenclamide; for activation at 300 µM / activation at 10 µM / activation at 100 µM: rat aorta strips precontracted with KCl, read-out: % Vasodilation at the maximum concentration testable
Description: Vasodilating activity was studied on the thoracic aortas from male Wistar rats (180–200 g), following a protocol published elsewhere. All synthesized compounds were dissolved in DMSO. The addition of the vehicle had no perceptible consequence on contraction level. Results were expressed as EC50 ± SE (μM), n = 3–8.
The vasodilator action of H2S-releasing compounds was evaluated on endothelium-denuded rat aorta strips precontracted with KCl. The results reported in Table 1 show the heterogeneous behavior of the tested compounds.

[4] = system: endothelium-intact rat aortic rings; test: Vasoprotection: acetylcholine-induced relaxation in rat aortic rings with endothelium impairment induced by pyrogallol; assay type: cell-based
Description: The experiments were performed on rat thoracic aortic rings from male Wistar rats (180–200 g), prepared as previously described. The effect of H2S donor or catechin, taken as a reference, on acetylcholine-induced relaxation in aortic rings pre-incubated with pyrogallol was studied as published elsewhere, with some modifications. Aortic rings were incubated with diethyldithiocarbamate (DETCA) 10 mM for 1 h to irreversibly inactivate endogenous superoxide dismutase (SOD). Then, the aortic rings were washed and randomly divided into four groups: (1) control: endothelium-intact rings incubated in Krebs’ solution with vehicle only (DMSO); (2) H2S donor: endothelium-intact rings incubated with H2S donor (100 μM) or reference catechin (10 mM) for 30 min; (3) pyrogallol: endothelium-intact rings incubated with 500 μM pyrogallol for 15 min; (4) H2S donor plus pyrogallol: endothelium-intact rings incubated with H2S donor (100 μM) or reference catechin (10 mM) for 30 min and 500 μM pyrogallol for the last 15 min. After the incubation time, the rings were washed, 1 μM phenylephrine was added to the organ baths, then acetylcholine (10^−9–l0^−5 M) was added cumulatively. Tension was measured and calculated as the percentage of contraction in response to phenylephrine (1 μM). Data were expressed as mean ± SEM, n = 3–9.
Figure 3 Effect of 6 (100 μM) on acetylcholine-induced vasodilation in endothelium-intact rat aortic rings. […] Statistical analyses were made using Student’s t-test for unpaired data. ** p < 0.01 vs. the pyrogallol group.

Compound	Stability (% compound ± SE), buffer ([1]; 24 h) [%]	% Compd ± SE ([2]; 1 h) [%]	% Compd ± SE ([2]; 4 h) [%]	% Compd ± SE ([2]; 24 h) [%]	Stability (% compound ± SE), buffer + cysteine (50×) ([3]; 1 h) [%]	Stability (% compound ± SE), buffer + cysteine (50×) ([3]; 24 h) [%]	half-life at 200 µM [2] [h]	further results
C=CCSCC(NC(C)=O)C(=O)O (stereo not shown) [Compound 1]	91.5 ± 1.0	88 ± 1	35 ± 1	8.0 ± 0.5	87.3 ± 1.0	69.5 ± 1.0		Stability (% compound ± SE), buffer + cysteine (50×) ([3]; 6 h): 72.5 ± 1.0%
C=CCSSCCC(=O)O [Compound 3]	101.0 ± 1.0	80.0 ± 1.0	62 ± 2	44 ± 1				half-life at 100 µM [3]: ~0.167 h
C=CCSSCCC(=O)OCC [Compound 4]							< 0.5	% Vasodilation at the maximum concentration testable, + Glib. 10 μM (rat aorta strips; 100 μM, in the presence of glibenclamide 10 μM): [44 ± 3] ^2%; EC50 (rat aorta strips): 64 ± 6 µM; Effect of glibenclamide on the concentration-response curve / EC50 (rat aorta strips): significantly rightward shifted
C=CCSSCC(NC(C)=O)C(=O)O (stereo not shown) [Compound 5]	87.7 ± 1.0	64 ± 1	39 ± 1	16 ± 1				activation at 300 µM (rat aorta strips): 16%; half-life at 100 µM [3]: ~0.0833 h
O=C(O)CCC(=O)NSC(=O)c1ccccc1 [Compound 7]	57.1 ± 3.3	19.8 ± 0.7	0	0				Stability (% compound ± SE), buffer ([1]; 6 h): 91.6 ± 1.1%; activation at 300 µM (rat aorta strips): 12%; half-life at 100 µM [3]: ~1.3 h
CC(=O)NSC(=O)c1ccccc1 [Compound 8]							< 0.5	Effect of glibenclamide on the concentration-response curve / EC50 (rat aorta strips): almost the same; Ach-induced maximum relaxation ([4]; H2S donor 100 μM without exposure to pyrogallol): did not reduce Ach-induced maximum relaxation; Ach-induced maximal relaxation ([4]; rings incubated with H2S donor 100 μM 30 min and 500 μM pyrogallol last 15 min): not able to reduce pyrogallol-induced endothelium impairment
O=C(O)c1ccc(-c2ssc(=S)c2-c2ccccc2)cc1 [Compound 9]	92.6 ± 0.8	94.2 ± 0.2	90.0 ± 0.8	83 ± 1	98.6 ± 0.3	78.1 ± 0.3		EC50 (rat aorta strips): 78 ± 7 µM; Effect of glibenclamide on the concentration-response curve / EC50 (rat aorta strips): significantly rightward shifted; Stability (% compound ± SE), buffer + cysteine (50×) ([3]; 6 h): 94.9 ± 0.7%
COC(=O)c1ccc(-c2ssc(=S)c2-c2ccccc2)cc1 [Compound 10]							2.4	activation at 10 µM (rat aorta strips): 29%
O=C(O)c1ccc(-c2cssc2=S)cc1 [Compound 11]	94.8 ± 3.2	96.3 ± 0.2	90.0 ± 0.9	53 ± 2	99.0 ± 0.3	37.6 ± 0.1		activation at 100 µM (rat aorta strips; 100 μM): 42%; Stability (% compound ± SE), buffer + cysteine (50×) ([3]; 6 h): 82.6 ± 0.2%
CCOC(=O)c1ccc(-c2cssc2=S)cc1 [Compound 12]							2.7	Effect of glibenclamide on the concentration-response curve / EC50 (rat aorta strips): almost the same
O=C(O)COc1ccc(-c2cc(=S)ss2)cc1 [Compound 13]	101.8 ± 1.4	99.2 ± 0.1	96.0 ± 0.8	94.3 ± 2	99.0 ± 0.4	81.9 ± 0.1		activation at 100 µM (rat aorta strips; 100 μM): 39%; Stability (% compound ± SE), buffer + cysteine (50×) ([3]; 6 h): 96.6 ± 0.1%
CCOC(=O)COc1ccc(-c2cc(=S)ss2)cc1 [Compound 14]							0.5	activation at 10 µM (rat aorta strips): 37%
O=C(O)c1csc(=S)s1 [Compound 15]	100.0 ± 1.0	99.2 ± 0.1	95 ± 1	94.8 ± 2	100.0 ± 0.2	96.6 ± 1.0		activation at 300 µM (rat aorta strips): 17%
COC(=O)c1csc(=S)s1 [Compound 16]							1.5	activation at 100 µM (rat aorta strips; 100 μM): 25%
NC(=S)c1ccc(C(=O)O)cc1 [Compound 17]	82.3 ± 0.4	91.6 ± 0.3	85.0 ± 0.1	64.7 ± 0.2	97.6 ± 0.2	25.0 ± 0.6		activation at 300 µM (rat aorta strips): 27%; Stability (% compound ± SE), buffer + cysteine (50×) ([3]; 6 h): 84.1 ± 0.2%
COC(=O)c1ccc(C(N)=S)cc1 [Compound 18]							3.7	activation at 10 µM (rat aorta strips): 33%
O.Oc1cc(O)c2c(c1)O[C@H](c1ccc(O)c(O)c1)[C@@H](O)C2 [catechin, reference compound]								Ach-induced maximal relaxation ([4]; rings incubated with catechin 10 mM and 500 μM pyrogallol): 77 ± 3%
Oc1cccc(O)c1O [pyrogallol, reference compound]								Maximum Ach-induced relaxation ([4]; rings incubated with 500 μM pyrogallol alone for 15 min (control 80 ± 3%)): 15 ± 3%
